From patent publication EP2818471A1, “Nitrogen bicyclic compounds as inhibitors for Scyl1 and Grk5” (Max-Planck-Gesellschaft zur Förderung der Wissenschaften …, priority 2013, dated 2014)

Tested on: beta-TC6 cells
Test: Insulin HTRF assay, relative activity Ar normalized to sunitinib
Type: cell-based
Conditions: Mus musculus, normalized to positive control sunitinib (5 µM = 100%), Table 10
In short: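 Relative activity Ar was scaled between 0% and 100% controls, with sunitinib at 5 µM f.c. as reference. Insulin released by beta-TC6 cells was quantified by sandwich HTRF (Eu-cryptate/XL665 antibodies, 120 min RT). Cells had been seeded 24 or 48 h, then treated 2–4 h at 37°C in induction buffer, 0.5% DMSO.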

SMILES	Emax
NC(=O)c1ccc(-c2ccc3ncc(-c4ccccc4)n3n2)cc1 [compound 100, 4-(3-phenylimidazo[1,2-b]pyridazin-6-yl)benzamide]	20 to 50%
c1cncc(-c2cnc3ccc(-c4ccoc4)nn23)c1 [compound 107, 6-(3-furyl)-3-(3-pyridyl)imidazo[1,2-b]pyridazine]	20 to 50%
c1cc(-c2ccc3nnc(-c4ccc5c(c4)OCO5)n3c2)co1 [compound 171, 3-(1,3-benzodioxol-5-yl)-6-(3-furyl)-[1,2,4]triazolo[4,3-a]pyridine]	50 to 100%
Cn1ccc2cc(-c3cnc4cnc(-c5cccc(C(=O)NCCO)c5)cn34)ccc21 [compound 399, N-(2-hydroxyethyl)-3-[3-(1-methylindol-5-yl)imidazo[1,2-a]pyrazin-6-yl]benzamide]	20 to 50%
Clc1cccc(-c2ccc3nnc(-c4ccc5c(c4)OCO5)n3c2)c1 [compound 170, 3-(1,3-benzodioxol-5-yl)-6-(3-chlorophenyl)-[1,2,4]triazolo[4,3-a]pyridine]	20 to 50%
CN(C)CCCOc1ccc(-c2cn3c(-c4ccc(N(C)C)cc4)cnc3cn2)cn1 [compound 281, 4-[6-[6-[3-(dimethylamino)propoxy]-3-pyridyl]imidazo[1,2-a]pyrazin-3-yl]-N,N-dimethyl-aniline]	50 to 100%
CCOc1cccc(-c2cn3c(-c4ccc5c(c4)OCO5)cnc3cn2)c1 [compound 302, 3-(1,3-benzodioxol-5-yl)-6-(3-ethoxyphenyl)imidazo[1,2-a]pyrazine]	50 to 100%
c1ccc(-c2cnc3cnc(-c4ccsc4)cn23)cc1 [compound 296, 3-phenyl-6-(3-thienyl)imidazo[1,2-a]pyrazine]	20 to 50%
OCC#Cc1ccc2nnc(-c3ccc4c(c3)OCO4)n2c1 [compound 173, 3-[3-(1,3-benzodioxol-5-yl)-[1,2,4]triazolo[4,3-a]pyridin-6-yl]prop-2-yn-1-ol]	20 to 50%
Oc1ccc(-c2cnc3cnc(-c4ccc(Cl)cc4)cn23)cc1 [compound 324, 4-[6-(4-chlorophenyl)imidazo[1,2-a]pyrazin-3-yl]phenol]	20 to 50%
Nc1cccc(-c2cn3c(-c4cccc(F)c4)cnc3cn2)c1 [compound 384, 3-[3-(3-fluorophenyl)imidazo[1,2-a]pyrazin-6-yl]aniline]	20 to 50%
COc1ccc(-c2cnc3ccc(NCCCO)nn23)cc1 [compound 41, 3-[[3-(4-methoxyphenyl)imidazo[1,2-b]pyridazin-6-yl]amino]propan-1-ol]	10 to 20%
c1cncc(-c2cnc3ccc(-c4cccs4)nn23)c1 [compound 108, 3-(3-pyridyl)-6-(2-thienyl)imidazo[1,2-b]pyridazine]	20 to 50%
COc1ccc(-c2cnc3cnc(-c4ccc(N5CCN(C)CC5)cc4)cn23)cn1 [compound 381, 3-(6-methoxy-3-pyridyl)-6-[4-(4-methylpiperazin-1-yl)phenyl]imidazo[1,2-a]pyrazine]	20 to 50%
OCc1ccc(-c2cn3c(-c4cccs4)cnc3cn2)cc1 [compound 422, [4-[3-(2-thienyl)imidazo[1,2-a]pyrazin-6-yl]phenyl]methanol]	20 to 50%
c1cc2cc(-c3ccc4nnc(-c5cscn5)n4c3)ccc2[nH]1 [compound 229, 4-[6-(1H-indol-5-yl)-[1,2,4]triazolo[4,3-a]pyridin-3-yl]thiazole]	50 to 100%
CC(=O)Nc1cccc(-c2cn3c(-c4ccc(F)c(Cl)c4)cnc3cn2)c1 [compound 350, N-[3-[3-(3-chloro-4-fluoro-phenyl)imidazo[1,2-a]pyrazin-6-yl]phenyl]acetamide]	20 to 50%
CC(=O)Nc1cccc(-c2cnc3ccc(NCc4ccc(F)cc4)nn23)c1 [compound 19, N-[3-[6-[(4-fluorophenyl)methylamino]imidazo[1,2-b]pyridazin-3-yl]phenyl]acetamide]	10 to 20%

SMILES	Emax
Oc1cccc(-c2cnc3cnc(-c4cccc(Cl)c4)cn23)c1 [compound 368, 3-[6-(3-chlorophenyl)imidazo[1,2-a]pyrazin-3-yl]phenol]	20 to 50%
O=C(NC1CC1)c1ccc(-c2cnc3cccnn23)cc1 [compound 89, N-cyclopropyl-4-imidazo[1,2-b]pyridazin-3-yl-benzamide]	10 to 20%
COc1cccc(CC(=O)Nc2cnc3cnc(-c4ccc(Oc5ccccc5)cc4)cn23)c1 [compound 259, 2-(3-methoxyphenyl)-N-[6-(4-phenoxyphenyl)imidazo[1,2-a]pyrazin-3-yl]acetamide]	10 to 20%
Fc1cccc(-c2cnc3cnc(-c4ccc5c(c4)OCO5)cn23)c1 [compound 386, 6-(1,3-benzodioxol-5-yl)-3-(3-fluorophenyl)imidazo[1,2-a]pyrazine]	20 to 50%
OCc1cccc(-c2ccc3nnc(-c4ccccn4)n3c2)c1 [compound 248, [3-[3-(2-pyridyl)-[1,2,4]triazolo[4,3-a]pyridin-6-yl]phenyl]methanol]	20 to 50%
COc1cc(-c2ccc3ncc(-c4cccs4)n3n2)ccc1O [compound 157, 2-methoxy-4-[3-(2-thienyl)imidazo[1,2-b]pyridazin-6-yl]phenol]	20 to 50%
CC(=O)Nc1cccc(-c2ccc3nnc(-c4ccccc4)n3c2)c1 [compound 165, N-[3-(3-phenyl-[1,2,4]triazolo[4,3-a]pyridin-6-yl)phenyl]acetamide]	50 to 100%
Nc1ccc(-c2cnc3ccc(Cc4ccccc4)nn23)cn1 [compound 161, 5-(6-benzylimidazo[1,2-b]pyridazin-3-yl)pyridin-2-amine]	20 to 50%
Fc1ccc(-c2ccc3nnc(-c4cscn4)n3c2)cc1Cl [compound 228, 4-[6-(3-chloro-4-fluoro-phenyl)-[1,2,4]triazolo[4,3-a]pyridin-3-yl]thiazole]	20 to 50%
FC(F)(F)Oc1cccc(-c2nnc3ccc(-c4cccs4)cn23)c1 [compound 195, 6-(2-thienyl)-3-[3-(trifluoromethoxy)phenyl]-[1,2,4]triazolo[4,3-a]pyridine]	50 to 100%
Clc1cccc(-c2nnc3ccc(-c4ncccn4)cn23)c1 [compound 204, 3-(3-chlorophenyl)-6-pyrimidin-2-yl-[1,2,4]triazolo[4,3-a]pyridine]	10 to 20%
CC(C)Oc1cccc(-c2cn3c(-c4ccc5c(c4)OCO5)cnc3cn2)c1 [compound 310, 3-(1,3-benzodioxol-5-yl)-6-(3-isopropoxyphenyl)imidazo[1,2-a]pyrazine]	50 to 100%
CN(C)c1ccc(-c2cnc3cnc(-c4ccccc4N(C)C)cn23)cc1 [compound 283, 2-[3-(4-dimethylaminophenyl)imidazo[1,2-a]pyrazin-6-yl]-N,N-dimethyl-aniline]	20 to 50%
Nc1cccc(-c2cn3c(NC(=O)Cc4ccc(F)c(F)c4)cnc3cn2)c1 [compound 277, N-[6-(3-aminophenyl)imidazo[1,2-a]pyrazin-3-yl]-2-(3,4-difluorophenyl)acetamide]	10 to 20%
Oc1cccc(-c2cnc3cnc(-c4cc5ccccc5s4)cn23)c1 [compound 364, 3-[6-(benzothiophen-2-yl)imidazo[1,2-a]pyrazin-3-yl]phenol]	50 to 100%
CS(=O)(=O)Nc1cccc(-c2cn3c(-c4cccnc4)cnc3cn2)c1 [compound 318, N-[3-[3-(3-pyridyl)imidazo[1,2-a]pyrazin-6-yl]phenyl]methanesulfonamide]	20 to 50%
c1ccc(-c2ccc3ncc(-c4ccc5c(c4)OCO5)n3n2)cc1 [compound 101, 3-(1,3-benzodioxol-5-yl)-6-phenyl-imidazo[1,2-b]pyridazine]	20 to 50%
